Measured values: patent publication US9512139B2, “Conformationally constrained, fully synthetic macrocyclic compounds” (POLYPHOR AG, priority 2009, dated 2016)
One block for each compound: values may come before it.

Key:
[1] = molecular target: T1, human Kv1.3 (Homo sapiens, UniProt P22001); experiment: Thallium-sensitive fluorescence assay for the voltage gated ion channel Kv1.3 in Jurkat cells; type: cell-based; conditions: for inhibition at 10 µM: Jurkat, read-out: KV1,3 antagonist activity [% Inhibition at 10 μM]; for IC50: read-out: KV1,3 antagonist activity IC50
T1 construct: expressed in transfected cells; host or cells: Jurkat cells
T1 sequence (P22001 whole entry): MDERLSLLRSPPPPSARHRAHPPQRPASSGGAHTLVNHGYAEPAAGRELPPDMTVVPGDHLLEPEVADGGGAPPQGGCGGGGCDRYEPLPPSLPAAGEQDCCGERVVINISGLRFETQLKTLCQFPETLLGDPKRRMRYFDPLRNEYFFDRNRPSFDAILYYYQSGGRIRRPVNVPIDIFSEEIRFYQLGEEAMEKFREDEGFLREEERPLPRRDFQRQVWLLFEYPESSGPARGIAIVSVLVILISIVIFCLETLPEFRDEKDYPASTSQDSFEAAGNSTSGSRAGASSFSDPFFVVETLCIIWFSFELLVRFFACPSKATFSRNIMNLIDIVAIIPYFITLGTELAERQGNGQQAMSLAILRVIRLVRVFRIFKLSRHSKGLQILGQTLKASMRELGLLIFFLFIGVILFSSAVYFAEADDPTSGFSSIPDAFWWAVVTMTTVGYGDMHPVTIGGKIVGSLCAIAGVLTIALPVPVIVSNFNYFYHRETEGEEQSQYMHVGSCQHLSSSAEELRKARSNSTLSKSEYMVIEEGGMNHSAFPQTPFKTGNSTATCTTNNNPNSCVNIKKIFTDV
Protocol: 2. Assay for the Voltage Gated Ion Channel Kv1.3
Assays were performed and analyized with a FLIPR^TETRA device as specified above.
Compounds for inhibition of ion channel Kv1.3 were assayed in Jurkat cells recombinantly expressing human Kv1.3. For high throughput screening a thallium-sensitive, fluorescence-based assay was used. […] To identify blockers of this ion channel the cells were incubated with different concentrations of compounds 5 min before increasing the potassium and thallium concentration. The fluorescence signals by increasing potassium were then compared in the absence and presence of compounds. Dose response curves were established by adding different concentrations of compounds and analyzing the signal. As reference Kv1.3 blockers margatoxin and quinidine in Cl-free buffer were used as described in the literature.
The results of the Kv1.3 assay are depicted in Table 51 below.

[2] = in vitro; type: in vitro ADME, human; conditions: human, plasma; for Plasma Stability 240 min hum [% remain.]: 4 h
Protocol: Example compounds were dissolved in DMSO/H2O 90:10 to a final concentration of 10 mM for plasma stability determination and metabolic stability determination.
Human plasma (3-5 donors, Blutspendedienst SRK, Basel) and CD-1 mouse plasma (mixed gender pool >50 animals, Innovative Research, CA, USA) are both sodium citrate stabilized. The assay is performed in triplicates at 10 μM compound concentration and 37° C. Samples are taken at 0, 15, 60, and 240 minutes and stopped by precipitation with 2 volumes of acetonitrile. The supernatant is collected, evaporated and reconstituted in a 5% acetonitrile solution to be analyzed by HPLC/MS/MS. The resulting peak area counts are expressed in percent of the 0 value and used to determine the endpoint stability in % and the half life in minutes. In order to monitor assay integrity the degradation of propantheline is assayed with every experimental set.

[3] = molecular target: T2, Motilin Receptor (Homo sapiens, UniProt O43193); experiment: Ca2+ assay (FLIPR) for the GPCR motilin receptor, agonist and antagonist mode; type: cell-based; conditions: antagonist mode
T2 construct: host or cells: Ca2+ optimized hematopoietic cell lines (rat)
T2 sequence (O43193 whole entry, species assumed): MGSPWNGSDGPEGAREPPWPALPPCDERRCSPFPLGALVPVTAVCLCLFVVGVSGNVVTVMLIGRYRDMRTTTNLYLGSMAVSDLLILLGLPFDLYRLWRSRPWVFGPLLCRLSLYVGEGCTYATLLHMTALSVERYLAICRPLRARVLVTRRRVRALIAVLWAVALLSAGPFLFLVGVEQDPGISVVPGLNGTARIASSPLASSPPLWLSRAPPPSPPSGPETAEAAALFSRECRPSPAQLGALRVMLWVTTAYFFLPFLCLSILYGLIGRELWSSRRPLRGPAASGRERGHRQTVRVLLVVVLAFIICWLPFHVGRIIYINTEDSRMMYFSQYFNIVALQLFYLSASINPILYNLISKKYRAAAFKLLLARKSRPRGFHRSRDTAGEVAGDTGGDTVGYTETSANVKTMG
Protocol: (§1) Ca^2+ Assays for the GPCRs Motilin Receptor, Prostaglandin F (FP) Receptor, 5-hydroxytryptamine 2B (5-HT2B) Receptor, and Purinoreceptor P2Y1
(§2) Assays were performed using on a FLIPR^TETRA fluorometric imaging plate reader (Molecular Devices) with ScreenWorks Version 2 (Molecular Devices) as device operating and data analysis software.
(§3) Dose dependent agonist and antagonist activities were determined. Percentage activation and percentage inhibition values were determined.
(§4) Percentage activation was determined upon initial addition of the sample compounds followed by 10 minutes incubation at 25° C. Following compound incubation, reference agonists were added at EC80 to determine percentage inhibition.
(§5) Reference agonists were purchased from reputable commercial vendors and prepared according to each ligand's specifications. All handling of ligands were done to ensure proper control throughout the experiments.
(§6) Example compounds were weighed on a Microbalance (Mettler MX5) and dissolved in 100% DMSO to a final concentration of 2.5 mM and subsequently diluted into the assay buffer.
(§7) The Assay buffer was a supplemented HBSS (Hank's Balanced Salt Solution). HBSS was supplemented with 20 mM HEPES (4-(2-hydroxyethyl)-piperazin-1-ethansulfonic acid) and 2.5 mM Probenecid (Sigma P8761).
(§8) GPCR assays were performed using Ca^2+ optimized hematopoietic cell lines (rat) with cultures never exceeding 90% confluency. […] After seeding, the assay plates were incubated for forty-five (45) minutes at room temperature. After room temperature incubation, the assay plates were incubated at 37° C. 5% CO2 for 24 hours prior to assaying.
(§9) All GPCR assays were performed using Fluo-8 Ca^2+ dye. Ca^2+ dye was prepared at 1× dye concentration in GPCR assay buffer. After 24 hours of incubation, cells were washed with GPCR assay buffer, and then Ca^2+-dye (100 μL/well) was added.
(§10) The plates were incubated for 90 minutes at 30° C. 5% CO2 prior to FLIPR assay.
(§11) Compound plates were prepared to add 50 μL/well during the agonist assay mode. During the FLIPR assay, 50 μL/well from the compound plate was diluted 3-fold into the existing 100 μL/well from the dye loading step. Therefore all compounds were prepared as 3× the final concentration desired in the assay.
(§12) After completion of the first single addition assay run, assay plate was removed from the FLIPR Tetra and placed at 25° C. for seven (7) minutes before antagonist assay.
(§13) Using the EC80 values determined during the agonist assay, all pre-incubated sample compound and reference antagonist (if applicable) wells were stimulated at the EC80 of the reference agonist. As reference ligands for the first three assays their obvious natural ligands motilin, prostaglandin F2α, and serotonin (5-HT, 5-Hydroxytryptamine) were used; and for the P2Y1 assay 2MeSATP (2-methyl-thio-adeno-sine 5′-triphosphate, i.e. (2R,3S,4R)-5-(6-amino-2-methylsulfanyl-purin-9-yl)-3,4-dihydroxy-tetrahydrofuran-2-yl]methyl (hydroxy-phosphonooxy-phosphoryl)hydrogen phosphate) was applied.
(§14) After the addition of the reference agonist fluorescence was monitored for 180 sec using FLIPR Tetra.
(§15) Data Analysis and Results:
(§16) From the FLIPR data, with negative control correction enabled, the maximum statistic for each well was exported and percentage activation relative to Emax control was calculated.

[4] = molecular target: T3, 5-hydroxytryptamine 2B (5-HT2B) Receptor (Homo sapiens, UniProt P41595); experiment: Ca2+ assay (FLIPR) for the GPCR 5-HT2B receptor, agonist and antagonist mode; type: cell-based
T3 construct: host or cells: Ca2+ optimized hematopoietic cell lines (rat)
T3 sequence (P41595 whole entry, species assumed): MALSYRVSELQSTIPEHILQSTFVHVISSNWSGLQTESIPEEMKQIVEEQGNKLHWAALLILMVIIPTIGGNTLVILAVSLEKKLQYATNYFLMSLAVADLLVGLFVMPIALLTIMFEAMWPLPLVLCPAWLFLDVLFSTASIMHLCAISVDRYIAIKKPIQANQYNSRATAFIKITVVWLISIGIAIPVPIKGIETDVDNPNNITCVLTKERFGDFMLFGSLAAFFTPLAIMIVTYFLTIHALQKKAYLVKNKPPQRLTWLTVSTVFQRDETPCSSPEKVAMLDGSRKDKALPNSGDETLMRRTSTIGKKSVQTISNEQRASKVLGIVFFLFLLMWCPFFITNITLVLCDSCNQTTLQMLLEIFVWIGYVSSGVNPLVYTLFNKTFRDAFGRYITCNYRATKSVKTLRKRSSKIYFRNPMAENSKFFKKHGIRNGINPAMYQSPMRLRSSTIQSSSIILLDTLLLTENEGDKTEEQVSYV
Protocol: as §1, §2, §3, §4, §5, §6, §7, §8, §9, §10, §11, §12, §13, §14, §15, §16

[5] = in vitro; type: in vitro ADME, mouse; conditions: plasma; for Plasma Stability 240 min mouse [% remain.]: 4 h
[6] = molecular target: T4, Prostaglandin F (FP) Receptor (Homo sapiens, UniProt P43088); experiment: Ca2+ assay (FLIPR) for the GPCR prostaglandin F (FP) receptor, agonist and antagonist mode; type: cell-based; conditions: 10 μM
T4 construct: host or cells: Ca2+ optimized hematopoietic cell lines (rat)
T4 sequence (P43088 whole entry): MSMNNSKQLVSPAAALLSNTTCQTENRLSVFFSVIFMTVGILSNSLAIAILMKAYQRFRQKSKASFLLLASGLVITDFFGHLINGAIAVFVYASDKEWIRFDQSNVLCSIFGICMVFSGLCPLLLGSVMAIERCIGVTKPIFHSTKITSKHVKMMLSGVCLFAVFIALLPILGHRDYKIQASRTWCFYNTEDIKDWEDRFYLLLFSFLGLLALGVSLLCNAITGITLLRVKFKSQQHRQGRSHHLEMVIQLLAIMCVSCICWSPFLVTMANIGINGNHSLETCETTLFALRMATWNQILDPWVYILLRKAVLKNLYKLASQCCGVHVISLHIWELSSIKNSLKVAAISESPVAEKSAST
How it was run: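 Ca2+-optimized rat hematopoietic cells carrying the receptor were loaded with Fluo-8 in HBSS/20 mM HEPES/2.5 mM probenecid and read on FLIPR. Agonist mode: 10 min compound incubation at 25 °C, % activation relative to Emax. Antagonist mode: stimulation at EC80 of the reference agonist (prostaglandin F2α for FP, 2MeSATP for P2Y1), fluorescence monitored 180 s.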

[7] = Metabolic stability assay, human microsomes; type: in vitro ADME; conditions: human, microsomes; for half-life at 10 µM: both sexes; for Metabolic Stability 60 min hum [% remain.]: 1 h
[8] = Metabolic stability assay, CD-1 mouse microsomes; type: in vitro ADME; conditions: microsomes; for half-life at 10 µM: both sexes; for Metabolic Stability 60 min mouse [% remain.]: 1 h
[9] = molecular target: T5, Purinoreceptor P2Y1 (Homo sapiens, UniProt P47900); experiment: Ca2+ assay (FLIPR) for the GPCR purinoreceptor P2Y1, agonist and antagonist mode; type: cell-based; conditions: P2Y1 receptor
T5 construct: host or cells: Ca2+ optimized hematopoietic cell lines (rat)
T5 sequence (P47900 whole entry): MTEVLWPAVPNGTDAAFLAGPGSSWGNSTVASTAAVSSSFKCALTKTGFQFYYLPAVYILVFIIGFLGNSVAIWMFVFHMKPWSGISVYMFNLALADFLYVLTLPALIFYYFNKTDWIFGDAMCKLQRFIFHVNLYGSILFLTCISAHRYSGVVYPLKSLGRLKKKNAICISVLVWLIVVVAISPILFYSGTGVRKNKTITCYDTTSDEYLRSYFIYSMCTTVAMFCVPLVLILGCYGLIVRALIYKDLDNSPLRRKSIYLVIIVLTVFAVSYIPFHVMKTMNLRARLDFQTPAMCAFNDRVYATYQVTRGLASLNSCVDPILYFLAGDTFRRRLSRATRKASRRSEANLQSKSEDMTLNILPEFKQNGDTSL
Protocol: Biological and Pharmacological Methods 1. Ca^2+ Assays for the GPCRs Motilin Receptor, Prostaglandin F (FP) Receptor, 5-hydroxytryptamine 2B (5-HT2B) Receptor, and Purinoreceptor P2Y1
as §2, §3, §4, §5, §6, §7
GPCR assays were performed using Ca^2+ optimized hematopoietic cell lines (rat) with cultures never exceeding 90% confluency. Cells were harvested and seeded (from cultures at less than 90% confluency) at 50000 cells/well for a 96-well plate (12500 cells/well for 384). After seeding, the assay plates were incubated for forty-five (45) minutes at room temperature. After room temperature incubation, the assay plates were incubated at 37° C. 5% CO2 for 24 hours prior to assaying.
as §9, §10, §11, §12, §13, §14, §15, §16
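Throughout, for Plasma Stability 240 min mouse [% remain.]: sodium citrate stabilized mouse plasma, parent compound quantified by HPLC/MS/MS relative to its peak area at time zero, run in triplicate.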
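Throughout, for Plasma Stability T½ [min] mouse: sodium citrate stabilized mouse plasma, parent compound quantified by HPLC/MS/MS relative to its peak area at time zero, run in triplicate.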

inhibition at 10 µM [1]: 54%
IC50 [1]: 3.5 µM
Compound: CN1CC[C@H](NC(=O)Cc2cccc3ccccc23)C(=O)N2C[C@@H](NC(=O)Cc3ccc4ccccc4c3)C[C@H]2COc2cccc(c2)C1=O [Ex. 177, N-[(4S,6S,10S)-13-methyl-6-{[2-(2-naphthyl)acetyl]amino}-9,14-dioxo-2-oxa-8,13-diazatricyclo[13.3.1.0^4,8]nonadeca-1(19),15,17-trien-10-yl]-2-(1-naphthyl)acetamide]

Plasma Stability T½ [min] hum ([2]; 10 µM): > 240 min
Plasma Stability 240 min hum [% remain.] ([2]; 10 µM): 99 % remain.
IC50 [3]: 2.7 µM
inhibition at 10 µM ([3]; at 10 μM): 95%
EC50 [4]: 3.3 µM
Agonist activity [% activation at 12.5 μM] ([4]; 12.5 μM): 36%
Plasma Stability T½ [min] mouse ([5]; both, CD-1, mouse, 10 µM): > 240 min
Plasma Stability 240 min mouse [% remain.] ([5]; both, CD-1, mouse, 10 µM): 100 % remain.
inhibition at 10 µM [6]: 44%
half-life at 10 µM [7]: 17 min
Metabolic Stability 60 min hum [% remain.] ([7]; both, 10 µM): 7 % remain.
half-life at 10 µM ([8]; CD-1, mouse): 35 min
Metabolic Stability 60 min mouse [% remain.] ([8]; both, CD-1, mouse, 10 µM): 33 % remain.
Compound: CN1CC(=O)N2C[C@@H](NC(=O)Cc3c[nH]c4ccccc34)C[C@H]2COc2ccc(F)cc2C(=O)N(C)[C@H](C(=O)NCCc2c[nH]c3ccccc23)CCC1=O [Ex. 12, (2S,11S,19aS)-15-fluoro-2-{[2-(1H-indol-3-yl)acetyl]amino}-N-[2-(1H-indol-3-yl)ethyl]-7,12-dimethyl-5,8,13-trioxo-2,3,6,7,8,9,10,11,12,13, 19,19a-dodecahydro-1H,5H-pyrrolo[2,1-c] [1,4,7,12]benzoxatriazacyclopentadecine-11-carboxamide]

inhibition at 10 µM [9]: 57%
Compound: CN1CC(=O)N2C[C@H](NC(=O)OC(C)(C)C)C[C@H]2CSc2cccc(c2)C(=O)N(C)[C@H](C(=O)NCc2ccc3ccccc3c2)CCC1=O [Ex. 316, tert-butyl N-[(4S,6R,15S)-11,16-dimethyl-15-{[(2-naphthylmethyl)amino]carbonyl}-9,12,17-trioxo-2-thia-8,11,16-triazatricyclo[16.3.1.0^4,8]docosa-1(22),18,20-trien-6-yl]carbamate]

inhibition at 10 µM [1]: 20%
Compound: CCCCC(=O)N[C@H]1C[C@H]2COc3cccc(c3)C(=O)N(C)CC[C@H](NC(=O)OCc3ccccc3)C(=O)N2C1 [Ex. 166, benzyl N-[(4S,6S,10S)-13-methyl-9,14-dioxo-6-(pentanoylamino)-2-oxa-8,13-diazatricyclo[13.3.1.0^4,8]nonadeca-1(19),15,17-trien-10-yl]carbamate]

inhibition at 10 µM [9]: 60%
Compound: CCCCC(=O)N[C@@H]1C[C@H]2CSc3cccc(c3)C(=O)N(C)[C@H](C(=O)NCc3ccc4ccccc4c3)CCC(=O)N(C)CC(=O)N2C1 [Ex. 322, (4S,6R,15S)-11,16-dimethyl-N-(2-naphthylmethyl)-9,12,17-trioxo-6-(pentanoylamino)-2-thia-8,11,16-triazatricyclo[16.3.1.0^4,8]docosa-1(22),18,20-triene-15-carboxamide]

IC50 [9]: 7.5 µM
inhibition at 10 µM [9]: 45%
Compound: CN1CC(=O)N2C[C@H](NC(=O)CCc3ccncc3)C[C@H]2CSc2cccc(c2)C(=O)N(C)[C@H](C(=O)NCc2ccc3ccccc3c2)CCC1=O [Ex. 321, (4S,6R,15S)-11,16-dimethyl-N-(2-naphthylmethyl)-9,12,17-trioxo-6-{[3-(4-pyridinyl)propanoyl]amino}-2-thia-8,11,16-triazatricyclo[16.3.1.0^4,8]docosa-1(22),18,20-triene-15-carboxamide]

Plasma Stability T½ [min] hum ([2]; 10 µM): > 240 min
Plasma Stability 240 min hum [% remain.] ([2]; 10 µM): 85 % remain.
inhibition at 10 µM [1]: 44%
IC50 [1]: 1.69 µM
Plasma Stability T½ [min] mouse ([5]; both, CD-1, mouse, 10 µM): > 240 min
Plasma Stability 240 min mouse [% remain.] ([5]; both, CD-1, mouse, 10 µM): 99 % remain.
half-life at 10 µM [7]: 25 min
Metabolic Stability 60 min hum [% remain.] ([7]; both, 10 µM): 17 % remain.
half-life at 10 µM ([8]; CD-1, mouse): 26 min
Metabolic Stability 60 min mouse [% remain.] ([8]; both, CD-1, mouse, 10 µM): 21 % remain.
Compound: CN1CCC(NC(=O)OCc2ccccc2)C(=O)N2CC(NC(=O)Cc3ccc4ccccc4c3)CC2COc2cccc(c2)C1=O [Ex. 168, benzyl N-[(4S,6S,10S)-13-methy1-6-{[2-(2-naphthyl)acetyl]amino}-9,14-dioxo-2-oxa-8,13-diazatricyclo [13.3.1.0^4,8]nonadeca-1(19),15,17-trien-10-yl]carbamate]

Plasma Stability T½ [min] hum [2]: > 240 min
Plasma Stability 240 min hum [% remain.] [2]: 92 % remain.
KV1,3 antagonist activity [% Inhibition at 10 μM] ([1]; 10 μM): 10%
Plasma Stability T½ [min] mouse ([5]; mouse): > 240 min
Plasma Stability 240 min mouse [% remain.] ([5]; mouse): 100 % remain.
Metabolic Stability T½ [min] hum [7]: > 60 min
Metabolic Stability 60 min hum [% remain.] [7]: 60 % remain.
Metabolic Stability T½ [min] mouse ([8]; mouse): > 60 min
Metabolic Stability 60 min mouse [% remain.] ([8]; mouse): 86 % remain.
Compound: CCCCC(=O)N[C@H]1C[C@H]2COc3cccc(c3)C(=O)N(C)CC[C@H](NC(=O)CCc3ccncc3)C(=O)N2C1 [Ex. 170]

inhibition at 10 µM [1]: 12%
Compound: CCCCC(=O)N[C@H]1C[C@H]2COc3cccc(c3)C(=O)N(C)CC[C@H](NC(=O)c3ccc4ccccc4c3)C(=O)N2C1 [Ex. 171, N-[(4S,6S,10S)-13-methyl-9,14-dioxo-6-(pentanoylamino)-2-oxa-8,13-diazatricyclo[13.3.1.0^4,8]nonadeca-1(19),15,17-trien-10-yl]-2-naphthamide]

inhibition at 10 µM [9]: 19%
Compound: CC(=O)N[C@@H]1C[C@H]2CSc3cccc(c3)C(=O)N(C)[C@H](C(=O)NCc3ccc4ccccc4c3)CCC(=O)N(C)CC(=O)N2C1 [Ex. 320, (4S,6R,15S)-6-(acetylamino)-11,16-dimethyl-N-(2-naphthylmethyl)-9,12,17-trioxo-2-thia-8,11,16-triazatricyclo[16.3.1.0^4,8]docosa-1(22),18,20-triene-15-carboxamide]
